What all share (assay type): in vivo
Series [1] has as its system Avena fatua. The experiment in a line: Test Example 5: herbicidal effect by foliage application, plastic box (symbol I). Particulars: 320 g/ha, 3 weeks after application. In outline:
(§1)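 Visual herbicidal score, taken three weeks post-application, of seedlings sprayed on the foliage with water-diluted emulsion at a predetermined amount; plants were 14 days old, greenhouse-raised at 25° C. to 30° C.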

In series [2] the test system is Veronica persica. The experiment in a line: Test Example 4: herbicidal effect by soil treatment (symbol R). The note with it: application herbicide amount 320 g/ha. In outline: (§2)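 Seeds were sown in sterilized diluvial soil, covered with about 1.5 cm of soil, and the soil surface was sprayed with a water-diluted emulsion of the compound at a predetermined rate. Plants grew in a greenhouse at 25° C. to 30° C.; effects were scored visually 3 weeks after application.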

For series [3], the system named is Lolium multiflorum Lam. The series can be described thus: Test Example 4: herbicidal effect by soil treatment (symbol K). The note with it: application herbicide amount 320 g/ha. The procedure, abridged: as §2
Series [4] relates to Chenopodium album. The experiment in a line: Test Example 4: herbicidal effect by soil treatment (symbol O). Particulars: application herbicide amount 320 g/ha. The procedure, abridged:
as §2

The subject of series [5] is Leptochloa chinensis. The experiment in a line: Test Example 3: herbicidal effect by foliage application, Wagner pot (symbol D). Particulars: application herbicide amount 320 g/ha. The procedure, abridged: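 Herbicidal activity was rated three weeks after a foliar spray of diluted emulsion concentrate, applied at a predetermined dose to plants grown for 14 days from seed in waterlogged alluvial soil within a 25–30 °C greenhouse.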

The test system of series [6] is transplanted rice plant. The experiment in a line: Test Example 1: effect on crop, application before weed generation in submerged conditions (symbol a). Particulars: application herbicide amount 320 g/ha. In outline:
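Alluvial soil pots flooded to 4 cm water, sown with Echinochloa oryzacola, Scirpus juncoides and Monochoria vaginalis, then transplanted with 2.5 leaf stage rice seedlings; pre-emergence application. Greenhouse 25° C. to 30° C.; scored 0–5 by herbicidal ratio 3 weeks after application.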

The subject of series [7] is corn. The experiment in a line: Test Example 5: effect on crop by foliage application, plastic box (symbol c). The note with it: 320 g/ha, 3 weeks after application. In outline: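 Soil: sterilized diluvial. Container: plastic box, 21 × 13 cm, 7 cm deep. Sowing: spot-like, ~1.5 cm cover. Growth: greenhouse, 25° C. to 30° C.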
In series [8] the test system is Echinochloa crus-galli var. crus-galli. The series can be described thus: Test Example 4: herbicidal effect by soil treatment (symbol H). The note with it: application herbicide amount 320 g/ha. The procedure, abridged: as §2
Series [9] relates to Setaria viridis. The series can be described thus: Test Example 5: herbicidal effect by foliage application, plastic box (symbol G). The note with it: 320 g/ha, 3 weeks after application. The procedure, abridged:
as §1

Series [10] deals with Chenopodium album. The experiment in a line: Test Example 5: herbicidal effect by foliage application, plastic box (symbol O). The note with it: 320 g/ha, 3 weeks after application. The procedure, abridged: as §1
Series [11] relates to Avena fatua. The experiment in a line: Test Example 4: herbicidal effect by soil treatment (symbol I). Particulars: application herbicide amount 320 g/ha. In outline: as §2
Series [12] has as its system Digitaria ciliaris. The series can be described thus: Test Example 4: herbicidal effect by soil treatment (symbol F). Particulars: application herbicide amount 320 g/ha. The procedure, abridged: as §2
For series [13], the system named is Echinochloa oryzacola Vasing. The experiment in a line: Test Example 2: herbicidal activity, application during weed generation in submerged conditions (symbol A). The note with it: Table 23; application herbicide amount 320 g/ha; grade 0-5 by criteria of Test Example 1. The procedure, abridged: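 Visual herbicidal ratings, taken three weeks after dosing, reflect post-emergence water-surface application to seedlings at one to two leaves. Conditions: co-sown weeds in alluvial soil flooded to 4 cm, greenhouse held at 25° C. to 30° C.; compound given as water-diluted emulsion at a fixed herbicide amount.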

Data on two compounds can be found in patent publication US11000033B2, “Ketone or oxime compound, and herbicide” (NISSAN CHEMICAL CORPORATION, priority 2014, dated 2021).

Consider `CC(=O)C1CC(O)=C(c2c(C)cc(C)cc2C)C1=O` (centres unmarked) [8-001], for which the “I: Avena fatua, herbicidal effect grade” value in series [1] is given as 0 (Herbicidal ratio of 5% or lower (almost no effect)). The “Herbicidal effect grade, R: Veronica persica” value in series [2] was 0 (Herbicidal ratio of 5% or lower (almost no effect)). The “Herbicidal effect grade, K: Lolium multiflorum Lam.” value in series [3] is given as 0 (Herbicidal ratio of 5% or lower (almost no effect)). Moreover, the “Herbicidal effect grade, O: Chenopodium album” value in series [4] was 0 (Herbicidal ratio of 5% or lower (almost no effect)). In addition, the “D (Leptochloa chinensis) herbicidal effect grade” value in [5] (Table 24) is listed as 0 (Herbicidal ratio of 5% or lower (almost no effect)). For the same compound, in series [6], the “Effect grade on crop, a: transplanted rice plant” value was 0 (Herbicidal ratio of 5% or lower (almost no effect)). Moreover, the “c: corn, effect on crop grade” value in series [7] is 0 (Herbicidal ratio of 5% or lower (almost no effect)). Moreover, the “Herbicidal effect grade, H: Echinochloa crus-galli var. crus-galli” value in series [8] is reported as 0 (Herbicidal ratio of 5% or lower (almost no effect)). In addition, the “G: Setaria viridis, herbicidal effect grade” value in [9] was 1 (Herbicidal ratio of 5% or higher and lower than 20%). The “O: Chenopodium album, herbicidal effect grade” value in series [10] is 0 (Herbicidal ratio of 5% or lower (almost no effect)). Besides, the “Herbicidal effect grade, I: Avena fatua” value in series [11] is recorded as 0 (Herbicidal ratio of 5% or lower (almost no effect)). Further, the “Herbicidal effect grade, F: Digitaria ciliaris” value in [12] is recorded as 0 (Herbicidal ratio of 5% or lower (almost no effect)). Moreover, in series [13], the “Herbicidal effect grade, A: Echinochloa oryzacola Vasing.” value is 0 (Herbicidal ratio of 5% or lower (almost no effect)).

For `CCc1cc(-c2ccc(Cl)cc2)cc(C)c1C1=C(O)CC(CC(C)=NOC)C1=O` (centres unmarked) [6-066], the “I: Avena fatua, herbicidal effect (criteria of Test Example 1)” value in series [1] was 5 (Herbicidal ratio of 90% or more (almost completely withered)). In addition, the “R: Veronica persica, herbicidal effect grade” value in series [2] was 3 (Herbicidal ratio of 40% or higher and lower than 70%). In [3], the “K: Lolium multiflorum Lam., herbicidal effect grade” value is 5 (Herbicidal ratio of 90% or more (almost completely withered)). For the same compound, in series [4], the “O: Chenopodium album, herbicidal effect grade” value is recorded as 0 (Herbicidal ratio of 5% or lower (almost no effect)). Moreover, in series [5], the “herbicidal effect on D (Leptochloa chinensis), grade 0-5” value was 5 (Herbicidal ratio of 90% or more (almost completely withered)). Also, the “Effect grade on crop, a: transplanted rice plant” value in series [6] was 3 (Herbicidal ratio of 40% or higher and lower than 70%). The “c: corn, effect on crop (criteria of Test Example 1)” value in [7] was 5 (Herbicidal ratio of 90% or more (almost completely withered)). The “H: Echinochloa crus-galli var. crus-galli, herbicidal effect grade” value in series [8] is listed as 5 (Herbicidal ratio of 90% or more (almost completely withered)). Moreover, in [9], the “G: Setaria viridis, herbicidal effect (criteria of Test Example 1)” value is 5 (Herbicidal ratio of 90% or more (almost completely withered)). In addition, the “O: Chenopodium album, herbicidal effect (criteria of Test Example 1)” value in series [10] is 1 (Herbicidal ratio of 5% or higher and lower than 20%). Moreover, the “I: Avena fatua, herbicidal effect grade” value in series [11] is on record as 5 (Herbicidal ratio of 90% or more (almost completely withered)). For the same compound, the “F: Digitaria ciliaris, herbicidal effect grade” value in series [12] is given as 5 (Herbicidal ratio of 90% or more (almost completely withered)). Further, in series [13], the “Herbicidal effect grade, A: Echinochloa oryzacola Vasing.” value was 5 (Herbicidal ratio of 90% or more (almost completely withered)).
